By IC50 is commonly meant the concentration that gives 50% inhibition.

This test has as its target T1, Human Factor XIIa (Homo sapiens, UniProt P00748).
T1 construct: purchased Enzyme Research Laboratories
T1 sequence (P00748 373-615 limits assumed): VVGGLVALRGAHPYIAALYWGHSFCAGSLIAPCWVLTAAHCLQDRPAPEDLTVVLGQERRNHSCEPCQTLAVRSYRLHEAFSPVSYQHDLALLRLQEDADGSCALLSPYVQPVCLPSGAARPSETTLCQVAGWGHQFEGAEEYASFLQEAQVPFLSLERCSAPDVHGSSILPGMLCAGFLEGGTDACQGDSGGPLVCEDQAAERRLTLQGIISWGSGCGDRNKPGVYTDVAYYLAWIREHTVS
T1 sequence (P00748 20-372 partner limits assumed): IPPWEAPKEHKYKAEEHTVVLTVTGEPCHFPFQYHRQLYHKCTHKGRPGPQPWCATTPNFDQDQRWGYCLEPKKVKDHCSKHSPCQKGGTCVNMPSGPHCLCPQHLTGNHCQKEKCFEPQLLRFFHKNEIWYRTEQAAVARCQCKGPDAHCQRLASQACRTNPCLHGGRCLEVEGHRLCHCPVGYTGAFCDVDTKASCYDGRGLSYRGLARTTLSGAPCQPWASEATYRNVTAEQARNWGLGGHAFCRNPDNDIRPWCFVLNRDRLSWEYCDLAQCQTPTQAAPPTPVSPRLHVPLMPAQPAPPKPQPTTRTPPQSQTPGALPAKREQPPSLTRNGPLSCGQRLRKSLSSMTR
In words: Determination of Factor XIIa inhibitory activity in vitro (fluorogenic substrate H-DPro-Phe-Arg-AFC). The class given is biochemical. To be noted: Human Factor XIIa (Enzyme Research Laboratories), 25° C., read-out: Human FXIIa IC50. The procedure: Determination of the % Inhibition for FXIIa
Factor XIIa inhibitory activity in vitro was determined using standard published methods (see e.g. Shori et al., Biochem. Pharmacol., 1992, 43, 1209; Baeriswyl et al., ACS Chem. Biol., 2015, 10 (8) 1861; Bouckaert et al., European Journal of Medicinal Chemistry 110 (2016) 181). Human Factor XIIa (Enzyme Research Laboratories) was incubated at 25° C. with the fluorogenic substrate H-DPro-Phe-Arg-AFC and various concentrations of the test compound. Residual enzyme activity (initial rate of reaction) was determined by measuring the […] and the IC50 value for the test compound was determined.
For the compound `CN(C)c1ccc(CNc2ncc(C(=O)NCc3ccc4c(N)nccc4c3)cc2Cl)cc1` [Example 11.02], the IC50 fell in the range of 3 to 10 µM.
With `Nc1nccc2cc(CNC(=O)c3cnc(NCC4CCOCC4)c(Cl)c3)ccc12` [Example 11.03], the IC50 was 3 to 10 µM.
For `Nc1nccc2cc(CNC(=O)c3cnc(Nc4ccccc4)c(Cl)c3)ccc12` [Example 11.04] the value was 10 to 40 µM; for `CN(C)CCCNc1ncc(Cl)cc1C(=O)NCc1ccc2c(N)nccc2c1` [Example 11.05], 1 to 3 µM.
With `CN(C)CCOc1ccc(CNc2ncc(Cl)cc2C(=O)NCc2ccc3c(N)nccc3c2)cc1` [Example 11.06] the figure was 3 to 10 µM; with `CN(C)CCCOc1cccc(CNc2ncc(Cl)cc2C(=O)NCc2ccc3c(N)nccc3c2)c1` [Example 11.07], 1 to 3 µM; with `CN1CCN(c2ccccc2CNc2ncc(C(=O)NCc3ccc4c(N)nccc4c3)cc2Cl)CC1` [Example 11.08], 10 to 40 µM.
`Nc1nccc2cc(CNC(=O)c3cnc(NCC4CCN(Cc5ccccc5)CC4)c(Cl)c3)ccc12` [Example 11.10]: the IC50 was 3 to 10 µM.
With `COc1ccc(CNc2ncc(C(=O)NCc3ccc4c(N)nccc4c3)cc2Cl)cc1` [Example 11.11] the figure was 10 to 40 µM; with `CS(=O)(=O)c1cccc(CNc2ncc(C(=O)NCc3ccc4c(N)nccc4c3)cc2Cl)c1` [Example 11.12], 3 to 10 µM.
With `Nc1nccc2cc(CNC(=O)c3cnc(NC4CCOCC4)c(Cl)c3)ccc12` [Example 11.13] the figure was 10 to 40 µM; with `Nc1nccc2cc(CNC(=O)c3cnc(NCCN4CCCCC4)c(Cl)c3)ccc12` [Example 11.14], 3 to 10 µM; with `CN1CCN(CCNc2ncc(C(=O)NCc3ccc4c(N)nccc4c3)cc2Cl)CC1` [Example 11.15], 10 to 40 µM.
Take `CN1CCC(CNc2ncc(C(=O)NCc3ccc4c(N)nccc4c3)cc2Cl)CC1` [Example 11.16]: the IC50 lay in the range of 3 to 10 µM.
For `Nc1nccc2cc(CNC(=O)c3cnc(NCCn4ccnc4)c(Cl)c3)ccc12` [Example 11.17] the value was 10 to 40 µM.
On to `Nc1nccc2cc(CNC(=O)c3cnc(NCc4ccccn4)c(Cl)c3)ccc12` [Example 11.18], for which the IC50 is 10 to 40 µM.
For `Nc1nccc2cc(CNC(=O)c3cnc(NCc4cccnc4)c(Cl)c3)ccc12` [Example 11.19] the value was 10 to 40 µM; for `CC(C)N(CCNc1ncc(C(=O)NCc2ccc3c(N)nccc3c2)cc1Cl)C(C)C` [Example 11.20, N-((1-aminoisoquinolin-6-yl)methyl)-5-chloro-6-((2-(diisopropylamino)ethyl)amino)nicotinamide], 1 to 3 µM; for `CN(C)CCCNc1ncc(C(=O)NCc2ccc3c(N)nccc3c2)cc1Cl` [Example 11.21], 3 to 10 µM.
In the case of `CC(C)N1CCN(CCCNc2ncc(C(=O)NCc3ccc4c(N)nccc4c3)cc2Cl)CC1` [Example 11.22], the IC50 was in the range of 3 to 10 µM.
Regarding `CN(C)CCOc1ccc(CNc2ncc(C(=O)NCc3ccc4c(N)nccc4c3)cc2Cl)cc1` [Example 11.23, N-((1-aminoisoquinolin-6-yl)methyl)-5-chloro-6-((4-(2-(dimethylamino)ethoxy)benzyl)amino)nicotinamide], the IC50 fell in the range of 3 to 10 µM.
With `CN1CCN(CCCNc2ncc(C(=O)NCc3ccc4c(N)nccc4c3)cc2Cl)CC1` [Example 11.24] the figure was 3 to 10 µM; with `COc1ccc(Nc2ncc(C(=O)NCc3ccc4c(N)nccc4c3)cc2Cl)cc1` [Example 11.25], 10 to 40 µM; with `CN(C)c1ccc(Nc2ncc(C(=O)NCc3ccc4c(N)nccc4c3)cc2Cl)cc1` [Example 11.26], 10 to 40 µM.
For `Nc1nccc2cc(CNC(=O)c3cnc(Nc4ccc(N5CCOCC5)cc4)c(Cl)c3)ccc12` [Example 11.27] the value was 10 to 40 µM; for `Nc1nccc2cc(CNC(=O)c3cnc(Oc4ccc(Cl)cc4)c(Cl)c3)ccc12` [Example 13.01], 10 to 40 µM; for `COc1ccc(Oc2ncc(C(=O)NCc3ccc4c(N)nccc4c3)cc2Cl)cc1` [Example 13.02], 10 to 40 µM.
With `Nc1nccc2cc(CNC(=O)c3cnc(Oc4cccc(N5CCOCC5)c4)c(Cl)c3)ccc12` [Example 13.03], the IC50 lay within 10 to 40 µM.
For `Nc1nccc2cc(CNC(=O)c3cnc(OCc4cccnc4)c(Cl)c3)ccc12` [Example 13.04] the value was 10 to 40 µM; for `Nc1nccc2cc(CNC(=O)c3cnc(Oc4ccccc4)c(Cl)c3)ccc12` [Example 13.05], 10 to 40 µM.
With `Nc1nccc2cc(CNC(=O)c3cnc(Oc4ccccc4Cl)c(Cl)c3)ccc12` [Example 13.06] the figure was 10 to 40 µM.
With `N#Cc1ccc(Oc2ncc(C(=O)NCc3ccc4c(N)nccc4c3)cc2Cl)cc1` [Example 13.07] the figure was 10 to 40 µM.
Turning to `N#Cc1cccc(Oc2ncc(C(=O)NCc3ccc4c(N)nccc4c3)cc2Cl)c1` [Example 13.08], the IC50 lay within 10 to 40 µM.
With `N#Cc1ccccc1Oc1ncc(C(=O)NCc2ccc3c(N)nccc3c2)cc1Cl` [Example 13.09, N-((1-aminoisoquinolin-6-yl)methyl)-5-chloro-6-(2-cyanophenoxy)nicotinamide] the figure was 3 to 10 µM; with `CN(C)c1ccc(Oc2ncc(C(=O)NCc3ccc4c(N)nccc4c3)cc2Cl)cc1` [Example 13.10], 10 to 40 µM.
For `COc1cccc(Oc2ncc(C(=O)NCc3ccc4c(N)nccc4c3)cc2Cl)c1` [Example 13.11] the value was 10 to 40 µM; for `COc1ccccc1Oc1ncc(C(=O)NCc2ccc3c(N)nccc3c2)cc1Cl` [Example 13.12], 10 to 40 µM.
With `Cn1cnc2cc(Oc3ncc(C(=O)NCc4ccc5c(N)nccc5c4)cc3Cl)ccc21` [Example 13.13] the figure was 3 to 10 µM; with `Nc1nccc2cc(CNC(=O)c3cnc(Oc4cccc(N5CCCC5=O)c4)c(Cl)c3)ccc12` [Example 13.14], 10 to 40 µM; with `CS(=O)(=O)c1ccc(Oc2ncc(C(=O)NCc3ccc4c(N)nccc4c3)cc2Cl)cc1` [Example 13.15], 10 to 40 µM.
In the case of `CC(C)NC(=O)N(C)c1ccc(Oc2ncc(C(=O)NCc3ccc4c(N)nccc4c3)cc2Cl)cc1` [Example 13.16], the 50% inhibitory concentration (IC50) lay within 3 to 10 µM.
Consider `CN1CCC(COc2ncc(C(=O)NCc3ccc4c(N)nccc4c3)cc2Cl)CC1` [Example 13.17], for which the IC50 lay in the range of 10 to 40 µM.
With `Nc1nccc2cc(CNC(=O)c3cnc(OCCN4CCCC4)c(Cl)c3)ccc12` [Example 13.18] the figure was 10 to 40 µM.
With `CN(C)CCOc1ncc(C(=O)NCc2ccc3c(N)nccc3c2)cc1Cl` [Example 13.19] the figure was 10 to 40 µM; with `Nc1nccc2cc(CNC(=O)c3cnc(OCc4ccccn4)c(Cl)c3)ccc12` [Example 13.20], 10 to 40 µM; with `Nc1nccc2cc(CNC(=O)c3cnc(OCc4ccncc4)c(Cl)c3)ccc12` [Example 13.21], 10 to 40 µM.
With `CCN(CC)CCCOc1ncc(C(=O)NCc2ccc3c(N)nccc3c2)cc1Cl` [Example 13.22] the figure was 10 to 40 µM; with `CN(C)CCCOc1ncc(C(=O)NCc2ccc3c(N)nccc3c2)cc1Cl` [Example 13.23], 10 to 40 µM.
For `Nc1nccc2cc(CNC(=O)c3cnc(Oc4ccc(N5CCNCC5)cc4)c(Cl)c3)ccc12` [Example 13.24, N-((1-aminoisoquinolin-6-yl)methyl)-5-chloro-6-(4-(piperazin-1-yl)phenoxy)nicotinamide], the half-maximal inhibitory concentration (IC50) was 1 to 3 µM.

(Values after patent US20220298141A1, “ENZYME INHIBITORS” (KALVISTA PHARMACEUTICALS LIMITED, priority 2019, published 2022).)
